Test results: patent US6355799B1, “Substituted benzene compounds, process for their preparation, and herbicidal and defoliant compositions containing them” (ISK Americas Incorporated, priority 1997, dated 2002)

How the values were obtained:
Type in all cases: in vivo
[1] = tested on: redroot pigweed (Amaranthus retroflexus, AMARE); experiment: Pre-emerge test, greenhouse herbicide activity screening; settings: rating scale 0-100, 14 days after application
In short: (§1)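 Visual ratings on a 0-100 scale (0 no damage, 100 all plants dead) were taken at 14 days after treatment. Rates of 15-1000 g ai/ha in acetone, 187 l/ha, were sprayed onto soil one day after planting (pre-emerge) or onto 2-3 leaf plants with 0.25% v/v surfactant (post-emerge).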

[2] = tested on: lambsquarters (Chenopodium album, CHEAL); experiment: as above; settings: rating scale 0-100, 14 days after application
In short: as §1

[3] = tested on: johnsongrass (Sorghum halepense, SORHA); experiment: as above; settings: rating scale 0-100, 14 days after application
In short: as §1

[4] = tested on: sicklepod (Cassia obtusifolia, CASOB); experiment: as above; settings: rating scale 0-100, 14 days after application
In short: as §1

[5] = tested on: large crabgrass (Digitaria sanguinalis, DIGSA); experiment: as above; settings: rating scale 0-100, 14 days after application
In short: as §1

[6] = tested on: green foxtail (Setaria viridis, SETVI); experiment: as above; settings: rating scale 0-100, 14 days after application
In short: as §1

[7] = tested on: barnyardgrass (Echinochloa crus-galli, ECHCG); experiment: as above; settings: rating scale 0-100, 14 days after application
In short: as §1

[8] = tested on: ivyleaf morningglory (Ipomoea hederacea, IPOHE); experiment: as above; settings: rating scale 0-100, 14 days after application
In short: as §1

[9] = tested on: velvetleaf (Abutilon theophrasti, ABUTH); experiment: as above; settings: rating scale 0-100, 14 days after application
In short: as §1

[10] = tested on: field corn (Zea mays L., var. Dekalb 535, CORN); experiment: Post-emerge test, crop safety; settings: 14 days after application; for Post-emerge Herbicidal Activity CORN (crop damage rating): rating scale 0-100; for Post-emerge phytotoxicity rating CORN (crop damage): rating scale 0-100 (0 no damage, 100 complete death)
In short: as §1

[11] = tested on: upland rice (Oryza sp., var. Tebonnet, RICE); experiment: Post-emerge test, crop safety; settings: 14 days after application; for Post-emerge Herbicidal Activity RICE (crop damage rating): rating scale 0-100; for Post-emerge phytotoxicity rating RICE (crop damage): rating scale 0-100 (0 no damage, 100 complete death)
In short: as §1

[12] = tested on: lambsquarters (Chenopodium album, CHEAL); experiment: Post-emerge test, greenhouse herbicide activity screening; settings: 14 days after application; for Post-emerge Herbicidal Activity CHEAL (phytotoxicity rating): rating scale 0-100; for Post-emerge Herbicidal Activity, phytotoxicity rating CHEAL: rating scale 0-100 (0 no damage, 100 complete death)
In short: (§2)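 Compounds in acetone were track-sprayed at 15–1000 g ai/ha: pre-emergence onto soil sown the previous day, then top-watered to incorporate and later bottom-watered; post-emergence onto 2–3 leaf plants with 0.25% v/v surfactant, bottom-watered only. Ratings on a 0–100 phytotoxicity scale were taken at day 14.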

[13] = tested on: johnsongrass (Sorghum halepense, SORHA); experiment: as above; settings: rating scale 0-100 (0 no damage, 100 complete death), 14 days after application
In short: as §2

[14] = tested on: sicklepod (Cassia obtusifolia, CASOB); experiment: as above; settings: 14 days after application; for Post-emerge Herbicidal Activity CASOB (phytotoxicity rating): rating scale 0-100; for Post-emerge Herbicidal Activity, phytotoxicity rating CASOB: rating scale 0-100 (0 no damage, 100 complete death)
In short: as §2

[15] = tested on: large crabgrass (Digitaria sanguinalis, DIGSA); experiment: as above; settings: 14 days after application; for Post-emerge Herbicidal Activity DIGSA (phytotoxicity rating): rating scale 0-100; for Post-emerge Herbicidal Activity, phytotoxicity rating DIGSA: rating scale 0-100 (0 no damage, 100 complete death)
In short: as §2

[16] = tested on: common ragweed (Ambrosia artemisizfolia L., AMBEL); experiment: as above; settings: post-emerge, 14 days after application, rating scale 0-100
In short: as §2

[17] = tested on: green foxtail (Setaria viridis, SETVI); experiment: as above; settings: 14 days after application; for Post-emerge Herbicidal Activity SETVI (phytotoxicity rating): rating scale 0-100; for Post-emerge Herbicidal Activity, phytotoxicity rating SETVI: rating scale 0-100 (0 no damage, 100 complete death)
In short: as §2

[18] = tested on: redroot pigweed (Amaranthus retroflexus, AMARE); experiment: as above; settings: 14 days after application
In short: as §2

[19] = tested on: barnyardgrass (Echinochloa crus-galli, ECHCG); experiment: as above; settings: 14 days after application; for Post-emerge Herbicidal Activity ECHCG (phytotoxicity rating): rating scale 0-100; for Post-emerge Herbicidal Activity, phytotoxicity rating ECHCG: rating scale 0-100 (0 no damage, 100 complete death)
In short: as §2

[20] = tested on: ivyleaf morningglory (Ipomoea hederacea, IPOHE); experiment: as above; settings: 14 days after application; for Post-emerge Herbicidal Activity IPOHE (phytotoxicity rating): rating scale 0-100; for Post-emerge Herbicidal Activity, phytotoxicity rating IPOHE: rating scale 0-100 (0 no damage, 100 complete death)
In short: as §2

[21] = tested on: velvetleaf (Abutilon theophrasti, ABUTH); experiment: as above; settings: 14 days after application; for Post-emerge Herbicidal Activity ABUTH (phytotoxicity rating): rating scale 0-100; for Post-emerge Herbicidal Activity, phytotoxicity rating ABUTH: rating scale 0-100 (0 no damage, 100 complete death)
In short: as §2

[22] = tested on: field corn (Zea mays L., var. Dekalb 535, CORN); experiment: Pre-emerge test, crop safety; settings: rating scale 0-100, 14 days after application
In short: as §1

[23] = tested on: upland rice (Oryza sp., var. Tebonnet, RICE); experiment: Pre-emerge test, crop safety; settings: rating scale 0-100, 14 days after application
In short: as §1

In the case of `C#CCOC(=O)C(C)(Cl)Cc1c(OC)c(Cl)cc(F)c1-n1c(=O)cc(C(F)(F)F)n(C)c1=O` (stereo not drawn) [14-44], the “Pre-emerge herbicidal activity, phytotoxicity rating AMARE” value ([1]; 63 g ai/ha) is reported as 70, the “Pre-emerge herbicidal activity, phytotoxicity rating AMARE” value ([1]; 250 g ai/ha) is reported as 100 and the “Pre-emerge herbicidal activity, phytotoxicity rating CHEAL” value ([2]; 63 g ai/ha) is reported as 70. The “Pre-emerge herbicidal activity, phytotoxicity rating CHEAL” value ([2]; 250 g ai/ha) was 100, the “Pre-emerge herbicidal activity, phytotoxicity rating SORHA” value ([3]; 63 g ai/ha) was 0 and the “Pre-emerge herbicidal activity, phytotoxicity rating SORHA” value ([3]; 250 g ai/ha) was 0. For the same compound, the “Pre-emerge herbicidal activity, phytotoxicity rating CASOB” value ([4]; 63 g ai/ha) was 0, the “Pre-emerge herbicidal activity, phytotoxicity rating CASOB” value ([4]; 250 g ai/ha) was 0 and the “Pre-emerge herbicidal activity, phytotoxicity rating DIGSA” value ([5]; 63 g ai/ha) was 0. For the same compound, the “Pre-emerge herbicidal activity, phytotoxicity rating DIGSA” value ([5]; 250 g ai/ha) was 90, the “Pre-emerge herbicidal activity, phytotoxicity rating SETVI” value ([6]; 63 g ai/ha) was 0 and the “Pre-emerge herbicidal activity, phytotoxicity rating SETVI” value ([6]; 250 g ai/ha) was 70. The “Pre-emerge herbicidal activity, phytotoxicity rating ECHCG” value ([7]; 63 g ai/ha) was 0, the “Pre-emerge herbicidal activity, phytotoxicity rating ECHCG” value ([7]; 250 g ai/ha) was 50 and the “Pre-emerge herbicidal activity, phytotoxicity rating IPOHE” value ([8]; 63 g ai/ha) was 0. For the same compound, the “Pre-emerge herbicidal activity, phytotoxicity rating IPOHE” value ([8]; 250 g ai/ha) was 0, the “Pre-emerge herbicidal activity, phytotoxicity rating ABUTH” value ([9]; 63 g ai/ha) was 80 and the “Pre-emerge herbicidal activity, phytotoxicity rating ABUTH” value ([9]; 250 g ai/ha) was 100. For the same compound, the “Post-emerge Herbicidal Activity CORN (crop damage rating)” value ([10]; 63 g ai/ha) was 99, the “Post-emerge Herbicidal Activity CORN (crop damage rating)” value ([10]; 250 g ai/ha) was 100 and the “Post-emerge phytotoxicity rating CORN (crop damage)” value ([10]; Rate 63 g ai/ha) was 100. The “Post-emerge phytotoxicity rating CORN (crop damage)” value ([10]; Rate 250 g ai/ha) was 100, the “Post-emerge Herbicidal Activity RICE (crop damage rating)” value ([11]; 63 g ai/ha) was 5 and the “Post-emerge Herbicidal Activity RICE (crop damage rating)” value ([11]; 250 g ai/ha) was 0. For the same compound, the “Post-emerge phytotoxicity rating RICE (crop damage)” value ([11]; Rate 63 g ai/ha) was 90, the “Post-emerge phytotoxicity rating RICE (crop damage)” value ([11]; Rate 250 g ai/ha) was 100 and the “Post-emerge Herbicidal Activity CHEAL (phytotoxicity rating)” value ([12]; 63 g ai/ha) was 70. The “Post-emerge Herbicidal Activity CHEAL (phytotoxicity rating)” value ([12]; 250 g ai/ha) was 99, the “Post-emerge Herbicidal Activity, phytotoxicity rating CHEAL” value ([12]; Rate 63 g ai/ha) was 100 and the “Post-emerge Herbicidal Activity, phytotoxicity rating CHEAL” value ([12]; Rate 250 g ai/ha) was 100. The “Post-emerge Herbicidal Activity, phytotoxicity rating SORHA” value ([13]; Rate 63 g ai/ha) was 30, the “Post-emerge Herbicidal Activity, phytotoxicity rating SORHA” value ([13]; Rate 250 g ai/ha) was 80 and the “Post-emerge Herbicidal Activity CASOB (phytotoxicity rating)” value ([14]; 63 g ai/ha) was 10. The “Post-emerge Herbicidal Activity CASOB (phytotoxicity rating)” value ([14]; 250 g ai/ha) was 20, the “Post-emerge Herbicidal Activity, phytotoxicity rating CASOB” value ([14]; Rate 63 g ai/ha) was 0 and the “Post-emerge Herbicidal Activity, phytotoxicity rating CASOB” value ([14]; Rate 250 g ai/ha) was 0. The “Post-emerge Herbicidal Activity DIGSA (phytotoxicity rating)” value ([15]; 63 g ai/ha) was 40, the “Post-emerge Herbicidal Activity DIGSA (phytotoxicity rating)” value ([15]; 250 g ai/ha) was 99 and the “Post-emerge Herbicidal Activity, phytotoxicity rating DIGSA” value ([15]; Rate 63 g ai/ha) was 100. For the same compound, the “Post-emerge Herbicidal Activity, phytotoxicity rating DIGSA” value ([15]; Rate 250 g ai/ha) was 100, the “Post-emerge Herbicidal Activity AMBEL (phytotoxicity rating)” value ([16]; 63 g ai/ha) was 30 and the “Post-emerge Herbicidal Activity AMBEL (phytotoxicity rating)” value ([16]; 250 g ai/ha) was 40. For the same compound, the “Post-emerge Herbicidal Activity SETVI (phytotoxicity rating)” value ([17]; 63 g ai/ha) was 30, the “Post-emerge Herbicidal Activity SETVI (phytotoxicity rating)” value ([17]; 250 g ai/ha) was 70 and the “Post-emerge Herbicidal Activity, phytotoxicity rating SETVI” value ([17]; Rate 63 g ai/ha) was 100. For the same compound, the “Post-emerge Herbicidal Activity, phytotoxicity rating SETVI” value ([17]; Rate 250 g ai/ha) was 100, the “Post-emerge Herbicidal Activity AMARE (phytotoxicity rating)” value ([18]; 63 g ai/ha, rating scale 0-100 (0 no damage, 100 complete death)) was 100 and the “Post-emerge Herbicidal Activity AMARE (phytotoxicity rating)” value ([18]; 250 g ai/ha, rating scale 0-100) was 100. For the same compound, the “Post-emerge Herbicidal Activity, phytotoxicity rating AMARE” value ([18]; Rate 63 g ai/ha, rating scale 0-100 (0 no damage, 100 complete death)) was 100, the “Post-emerge Herbicidal Activity, phytotoxicity rating AMARE” value ([18]; Rate 250 g ai/ha, rating scale 0-100 (0 no damage, 100 complete death)) was 100 and the “Post-emerge Herbicidal Activity ECHCG (phytotoxicity rating)” value ([19]; 63 g ai/ha) was 100. For the same compound, the “Post-emerge Herbicidal Activity ECHCG (phytotoxicity rating)” value ([19]; 250 g ai/ha) was 100, the “Post-emerge Herbicidal Activity, phytotoxicity rating ECHCG” value ([19]; Rate 63 g ai/ha) was 100 and the “Post-emerge Herbicidal Activity, phytotoxicity rating ECHCG” value ([19]; Rate 250 g ai/ha) was 100. The “Post-emerge Herbicidal Activity IPOHE (phytotoxicity rating)” value ([20]; 63 g ai/ha) was 30, the “Post-emerge Herbicidal Activity IPOHE (phytotoxicity rating)” value ([20]; 250 g ai/ha) was 80 and the “Post-emerge Herbicidal Activity, phytotoxicity rating IPOHE” value ([20]; Rate 63 g ai/ha) was 50. The “Post-emerge Herbicidal Activity, phytotoxicity rating IPOHE” value ([20]; Rate 250 g ai/ha) was 90, the “Post-emerge Herbicidal Activity ABUTH (phytotoxicity rating)” value ([21]; 63 g ai/ha) was 100 and the “Post-emerge Herbicidal Activity ABUTH (phytotoxicity rating)” value ([21]; 250 g ai/ha) was 100. The “Post-emerge Herbicidal Activity, phytotoxicity rating ABUTH” value ([21]; Rate 63 g ai/ha) was 100, the “Post-emerge Herbicidal Activity, phytotoxicity rating ABUTH” value ([21]; Rate 250 g ai/ha) was 100 and the “Pre-emerge phytotoxicity rating, crop damage CORN” value ([22]; 63 g ai/ha) was 0. The “Pre-emerge phytotoxicity rating, crop damage CORN” value ([22]; 250 g ai/ha) was 0, the “Pre-emerge phytotoxicity rating, crop damage RICE” value ([23]; 63 g ai/ha) was 0 and the “Pre-emerge phytotoxicity rating, crop damage RICE” value ([23]; 250 g ai/ha) was 50.
